In patent US20230151034A1 (COCRYSTAL PHARMA, INC., priority 2020, published 2023):

How the values were obtained:
SARS2 protease = SARS2 protease (Severe acute respiratory syndrome coronavirus 2, UniProt P0DTD1); experiment: SARS-CoV-2 protease inhibition assay (SARS2 FRET protease assay); assay type: biochemical; settings: Table E; SARS-CoV-2 protease inhibition; read-out: IC50
Outline: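 SARS-CoV-2 protease (25 nM) was incubated for 30 min at 30 °C with 1.3 μM quenched 5-FAM/TAMRA peptide substrate and compound (3-fold dilutions, 20 μM–1.0 nM). The buffer was 20 mM HEPES-Na pH 7, 120 mM NaCl, 0.4 mM EDTA, 0.01% Triton, 5% glycerol and 4 mM DTT. Fluorescence was read at ex 473 and em 519 nm, and IC50 was derived.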

[1] = molecular target: HuNV GGII.4 Norovirus protease (Norovirus GII.4 (human norovirus genogroup II genotype 4), UniProt P54634); experiment: Norovirus protease FRET assay (HuNV GGII.4); assay type: biochemical; settings: Table C; FRET protease assay; read-out: HuNV GGII.4 IC50
[2] = molecular target: Norwalk GGI.1 Norovirus protease (Norovirus, UniProt Q83883); experiment: Noro-Norwalk FRET protease assay (Norwalk GGI.1); assay type: biochemical, Norwalk virus; settings: Table C; FRET protease assay; read-out: Norwalk GGI.1 IC50
Experimental: Viral protease assays: The antiviral activities of inhibitors were determined by FRET (Fluorescence Resonance Energy Transfer) assay. Purified viral protease was incubated with the protease substrate peptide (Edans-DFHLQ/GP-Dabcyl) and inhibitor, and IC50 values were subsequently determined by the fluorescence signals.
The Noro-Norwalk FRET protease assay was performed in 50 mM HEPES-Na pH 8, 50 mM NaCl, 0.4 mM EDTA, 4% glycerol, and 6 mM DTT. A self-quenching peptide substrate [5-FAM]-[…]-[TAMRA] was custom synthesized by Anaspec. Compounds were diluted in 3-fold serial dilutions to final concentrations of 200 μM to 10.2 nM. Noro protease was added to a final concentration of 1-7 μM, depending on the enzyme activity level, and the peptide substrate was added to a final concentration of 10 μM. The assay was incubated 90 minutes at 37° C. and read in a Perkin Elmer Envision with excitation at 473 nm and emission measurement at 519 nm.

Chain of Norwalk GGI.1 Norovirus protease (Q83883 1101-1281): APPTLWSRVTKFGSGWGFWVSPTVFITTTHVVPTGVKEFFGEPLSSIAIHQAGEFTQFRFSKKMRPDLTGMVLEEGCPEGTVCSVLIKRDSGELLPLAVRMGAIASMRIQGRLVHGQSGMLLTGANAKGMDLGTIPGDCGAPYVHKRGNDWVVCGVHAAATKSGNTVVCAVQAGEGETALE
Chain of HuNV GGII.4 Norovirus protease (P54634 1009-1189): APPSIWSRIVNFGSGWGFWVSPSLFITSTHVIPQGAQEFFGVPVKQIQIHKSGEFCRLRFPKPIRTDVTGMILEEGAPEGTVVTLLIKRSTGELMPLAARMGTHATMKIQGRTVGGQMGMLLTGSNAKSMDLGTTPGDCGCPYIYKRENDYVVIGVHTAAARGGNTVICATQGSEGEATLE

## CC(CN(C)C(=O)CC[C@@H](C=O)NC(=O)[C@H](CC1CCCCC1)NC(=O)OCc1cccc(Cl)c1)c1ccccc1 (stereo in doubt) [Compound A49, 3-Chlorobenzyl ((2S)-3-cyclohexyl-1-(((2S)-5-(methyl(2-phenylpropyl)amino)-1,5-dioxopentan-2-yl)amino)-1-oxopropan-2-yl)carbamate]
SARS2 protease
  IC50: > 200 µM
[1]
  IC50: 76.7 µM
[2]
  IC50: 15 µM

## CCOP(=O)(OCC)C(O)[C@H](CCC(=O)N1CCOC(c2ccccc2)C1)NC(=O)[C@H](CC1CCCCC1)NC(=O)OCc1cccc(Cl)c1 (stereo partly drawn) [Compound A54, 3-Chlorobenzyl ((2S)-3-cyclohexyl-1-(((2S)-1-(diethoxyphosphoryl)-1-hydroxy-5-oxo-5-(2-phenylmorpholino)pentan-2-yl)amino)-1-oxopropan-2-yl)carbamate]
SARS2 protease
  IC50: 19 µM
[1]
  IC50: 161 µM
[2]
  IC50: 36.3 µM

## CN(CCc1ccccc1Cl)C(=O)CC[C@@H](C=O)NC(=O)[C@H](CC1CCCCC1)NC(=O)OCc1cccc(Cl)c1 [Compound A105, 3-Chlorobenzyl ((S)-1-(((S)-5-((2-chlorophenethyl)(methyl)amino)-1,5-dioxopentan-2-yl)amino)-3-cyclohexyl-1-oxopropan-2-yl)carbamate]
SARS2 protease
  IC50: > 200 µM
[1]
  IC50: 155 µM
[2]
  IC50: 28.2 µM

## CCNC(=O)CN(C)C(=O)CC[C@@H](C=O)NC(=O)[C@H](CC1CCCCC1)NC(=O)OCc1cccc(Cl)c1 [Compound A27, 3-Chlorobenzyl ((S)-3-cyclohexyl-1-(((S)-5-((2-(ethylamino)-2-oxoethyl) (methyl)amino)-1,5-dioxopentan-2-yl)amino)-1-oxopropan-2-yl)carbamate]
SARS2 protease
  IC50: 137 µM
[1]
  IC50: 11.3 µM
[2]
  IC50: 2.7 µM

## CCCCCN(C)C(=O)CC[C@H](NC(=O)[C@H](CC1CCCCC1)NC(=O)OCc1cccc(Cl)c1)C(=O)N(C)OC [Compound A8, 3-chlorobenzyl ((S)-3-cyclohexyl-1-(((S)-1-(methoxy (methyl)amino)-5-(methyl(pentyl)amino)-1,5-dioxopentan-2-yl)amino)-1-oxopropan-2-yl)carbamate]
SARS2 protease
  IC50: 89.8 µM
[1]
  IC50: > 200 µM
[2]
  IC50: > 200 µM

## CCOP(=O)(OCC)C(O)[C@H](CCC(=O)N(C)CCc1ccccc1)NC(=O)[C@H](CC1CCCCC1)NC(=O)OCc1cccc(Cl)c1 (stereo partly drawn) [Compound A15, 3-Chlorobenzyl ((2S)-3-cyclohexyl-1-(((2S)-1-(diethoxyphosphoryl)-1-hydroxy-5-(methyl(phenethyl)amino)-5-oxopentan-2-yl)amino)-1-oxopropan-2-yl)carbamate]
SARS2 protease
  IC50: > 200 µM
[1]
  IC50: 139 µM
[2]
  IC50: > 200 µM

## CN(Cc1ccccc1)C(=O)CC[C@@H](C=O)NC(=O)[C@H](CC1CCCCC1)NC(=O)OCc1cccc(Cl)c1 [Compound A18, 3-Chlorobenzyl ((S)-1-(((S)-5-(benzyl (methyl)amino)-1,5-dioxopentan-2-yl)amino)-3-cyclohexyl-1-oxopropan-2-yl) carbamate]
SARS2 protease
  IC50: > 200 µM
[1]
  IC50: 14.5 µM
[2]
  IC50: 2.7 µM

## CCOP(=O)(OCC)C(O)[C@H](CCC(=O)N(C)c1ccccc1)NC(=O)[C@H](CC1CCCCC1)NC(=O)OCc1cccc(Cl)c1 (stereo partly drawn) [Compound A14, 3-Chlorobenzyl ((2S)-3-cyclohexyl-1-(((2S)-1-(diethoxyphosphoryl)-1-hydroxy-5-(methyl (phenyl)amino)-5-oxopentan-2-yl)amino)-1-oxopropan-2-yl) carbamate]
SARS2 protease
  IC50: > 200 µM
[1]
  IC50: 70.1 µM
[2]
  IC50: 50.9 µM

## CN(CCc1ccccc1)C(=O)CC[C@@H](C=O)NC(=O)[C@H](CC1CCCCC1)NC(=O)OCc1cccc(Cl)c1 (stereo in doubt) [Compound A36, 3-chlorobenzyl ((S)-3-cyclohexyl-1-(((S)-5-(methyl(phenethyl)amino)-1,5-dioxopentan-2-yl)amino)-1-oxopropan-2-yl)carbamate]
SARS2 protease
  IC50: > 200 µM
[1]
  IC50: 26.9 µM
[2]
  IC50: 5.2 µM
